Measurements as given in US7638510B2, “Use of s-10-hydroxy-10,11-dihydro-carbamazepine for the treatment of anxiety and bipolar disorders” (Novartis AG, priority 2003, dated 2009).

Test system: rat
Experiment: Vogel conflict test (punished drinking)
Type: in vivo
Conditions: for PUNISHED DRINKING (number of shocks) mean ± s.e.m.: 3 minute period; for PUNISHED DRINKING % change from control: vs vehicle; for efficacy compared between racemate and enantiomers: 50-200 mg/kg p.o.; for efficacy compared with the positive control clobazam: 50-200 mg/kg p.o. vs clobazam 64 mg/kg
Method: a) Description of method: The method, which detects anxiolytic and related other psychiatric activity, follows that described by Vogel et al, Psychopharmacologia 1971; 21:1-7 Anxiolytics and antidepressants (e.g., Fontana et al., Psychopharmacology 1989; 98(2):157-62) of various classes increase punished drinking.
Rats are deprived of water for 48 hours and are then placed individually into a transparent Plexiglas enclosure (15×32×34 cm) with a floor consisting of stainless steel bars (0.4 cm) spaced 1 cm apart The back wall of the enclosure is made of opaque Plexiglass thereby concealing the observer from the experimental animal. In the centre of the opposite wall, 5 cm above the floor, a metal water spout protrudes into the cage and is connected to one pole of a shock generator (Apelex: Type 011346). The other pole of the shock generator is connected to the metal grid floor. The rat is left to explore until it found the water spout. Then, every time it drinks, it receives a slight electric shock (1.7 mA, 1 sec.) 2 seconds after it starts lapping. The number of shocks received (punished drinkings) is counted during a 3 minute period. 15 rats are studied per group. The test is performed blind. Compounds are evaluated at 50, 100 and 200 mg/kg, administered p.o. 60 minutes before the test, and compared with a vehicle control group. Clobazam (64 mg/kg), administered under the same experimental conditions, is used as reference substance. All substances are evaluated within the same experiment and compared with the same vehicle and reference substance controls. Data are analyzed by comparing treated groups with vehicle control using unpaired Student's t tests.

Row | Structure (SMILES) | PUNISHED DRINKING (number of shocks) mean ± s.e.m. (50 mg/kg p.o. -60 min) | PUNISHED DRINKING % change from control (50 mg/kg p.o. -60 min) | PUNISHED DRINKING (number of shocks) mean ± s.e.m. (100 mg/kg p.o. -60 min) | PUNISHED DRINKING % change from control (100 mg/kg p.o. -60 min) | PUNISHED DRINKING (number of shocks) mean ± s.e.m. (200 mg/kg p.o. -60 min) | PUNISHED DRINKING % change from control (200 mg/kg p.o. -60 min) | efficacy compared between racemate and enantiomers | PUNISHED DRINKING (number of shocks) mean ± s.e.m. (64 mg/kg p.o. -60 min) | PUNISHED DRINKING % change from control (64 mg/kg p.o. -60 min) | efficacy compared with the positive control clobazam
1 | NC(=O)N1c2ccccc2CC(O)c2ccccc21 (racemic) [M3, 10-hydroxy-10,11-dihydro-carbamazepine] | 5.9 ± 0.5 number of shocks | +34% | 8.4 ± 1.0 number of shocks | +91% | 10.4 ± 1.5 number of shocks | +136% | between that of the R- and S-enantiomers |  |  | 
2 | CN1C(=O)CC(=O)N(c2ccccc2)c2cc(Cl)ccc21 [CLOBAZAM, Clobazam, reference compound] |  |  |  |  |  |  |  | 8.2 ± 1.1 number of shocks | +86% | 
3 | NC(=O)N1c2ccccc2C[C@@H](O)c2ccccc21 [M4, R(−)-10,11-dihydro-10-hydroxy-5H-dibenzo[b,f]azepine-5-carboxamide] | 5.0 ± 0.4 NS number of shocks | +14% | 5.5 ± 0.5 NS number of shocks | +25% | 7.4 ± 1.3 number of shocks | +68% | less efficacious than the S-enantiomer at the lowest dose used |  |  | less than that of the positive control
4 | NC(=O)N1c2ccccc2C[C@H](O)c2ccccc21 [M5, S(+)-10,11-dihydro-10-hydroxy-5H-dibenzo[b,f]azepine-5-carboxamide] | 8.4 ± 1.3 number of shocks | +91% | 9.5 ± 1.0 number of shocks | +116% | 10.5 ± 1.3 number of shocks | +139% |  |  |  | surpasses that of clobazam at all doses tested
